Measurements taken from patent US20240050428A1 (Cullgen (Shanghai), Inc., priority 2020, published 2024).
Like-named read-outs stand apart in the source and are kept apart here.

How the values were obtained:
MV4;11 cells = experiment: Cell viability assay (CellTiter-Glo) in MV4;11 cells, alone or with gilteritinib; format: cell-based; settings: Homo sapiens, MV4-11, 72 h, MV4;11 cells, three days, CellTiter-Glo, read-out: MV4
MOLM-13 cells = experiment: Cell viability assay (CellTiter-Glo) in MOLM-13 cells, alone or with gilteritinib; format: cell-based; settings: Homo sapiens, MOLM-13, 72 h, MOLM-13 cells, three days, CellTiter-Glo
[1] = compound alone (without gilteritinib), 11 IC50
[2] = with gilteritinib 10 nM, 11 IC50 gilteritinib
[3] = compound alone (without gilteritinib), read-out: MOLM-13 IC50
[4] = with gilteritinib 20 nM, read-out: MOLM-13 IC50 gilteritinib

SMILES	IC50 (MV4;11 cells; [1])	IC50 (MV4;11 cells; [2])	IC50 (MOLM-13 cells; [3])	IC50 (MOLM-13 cells; [4])
O=C1CCC(N2C(=O)c3ccc(NC4CCC(CCCn5cc(-c6cnc7ccccc7n6)cn5)CC4)cc3C2=O)C(=O)N1 (stereo not drawn) [GS-184, 2-(2,6-Dioxopiperidin-3-yl)-5-((4-(3-(4-(quinoxalin-2-yl)-1H-pyrazol-1-yl)propyl)cyclohexyl)amino)isoindoline-1,3-dione]	0.1 to 1 µM	> 1 µM	> 1 µM	0.1 to 1 µM
CN1CCN(c2ccc3ncc(-c4cnn([C@H]5C[C@H](CNc6ccc7c(c6)C(=O)N(C6CCC(=O)NC6=O)C7=O)C5)c4)nc3c2)CC1 (stereo partly drawn) [GS-185, 2-(2,6-Dioxopiperidin-3-yl)-5-(((trans-3-(4-(7-(4-methylpiperazin-1-yl)quinoxalin-2-yl)-1H-pyrazol-1-yl)cyclobutyl)methyl)amino)isoindoline-1,3-dione]	0.1 to 1 µM	0.01 to 0.1 µM	0.1 to 1 µM	0.01 to 0.1 µM
O=C1CCC(N2C(=O)c3ccc(NC[C@H]4C[C@@H](n5cc(-c6cnc7ccc(N8CCNCC8)cc7n6)cn5)C4)cc3C2=O)C(=O)N1 (stereo partly drawn) [GS-186, 2-(2,6-Dioxopiperidin-3-yl)-5-(((cis-3-(4-(7-(piperazin-1-yl)quinoxalin-2-yl)-1H-pyrazol-1-yl)cyclobutyl)methyl)amino)isoindoline-1,3-dione]	> 1 µM	> 1 µM	> 1 µM	0.1 to 1 µM
O=C1CCC(N2C(=O)c3ccc(NC[C@H]4C[C@H](n5cc(-c6cnc7ccc(N8CCNCC8)cc7n6)cn5)C4)cc3C2=O)C(=O)N1 (stereo partly drawn) [GS-187, 2-(2,6-Dioxopiperidin-3-yl)-5-(((trans-3-(4-(7-(piperazin-1-yl)quinoxalin-2-yl)-1H-pyrazol-1-yl)cyclobutyl)methyl)amino)isoindoline-1,3-dione]	> 1 µM	> 1 µM	> 1 µM	> 1 µM
O=C1CCC(N2C(=O)c3ccc(NCCC[C@H]4C[C@H](n5cc(-c6cnc7ccc(N8CCOCC8)cc7n6)cn5)C4)cc3C2=O)C(=O)N1 (stereo partly drawn) [GS-188, 2-(2,6-Dioxopiperidin-3-yl)-5-((3-(trans-3-(4-(7-morpholinoquinoxalin-2-yl)-1H-pyrazol-1-yl)cyclobutyl)propyl)amino)isoindoline-1,3-dione]	0.01 to 0.1 µM	< 0.01 µM	0.01 to 0.1 µM	< 0.01 µM
O=C1CCC(N2C(=O)c3ccc(NC[C@H]4C[C@@H](n5cc(-c6cnc7ccc(N8CCOCC8)cc7n6)cn5)C4)cc3C2=O)C(=O)N1 (stereo partly drawn) [GS-189, 2-(2,6-Dioxopiperidin-3-yl)-5-(((cis-3-(4-(7-morpholinoquinoxalin-2-yl)-1H-pyrazol-1-yl)cyclobutyl)methyl)amino)isoindoline-1,3-dione]	0.1 to 1 µM	> 1 µM	0.1 to 1 µM	0.1 to 1 µM
CN1CCN(c2ccc3ncc(-c4cnn([C@H]5C[C@@H](CNc6ccc7c(c6)C(=O)N(C6CCC(=O)NC6=O)C7=O)C5)c4)nc3c2)CC1 (stereo partly drawn) [GS-190, 2-(2,6-Dioxopiperidin-3-yl)-5-(((cis-3-(4-(7-(4-methylpiperazin-1-yl)quinoxalin-2-yl)-1H-pyrazol-1-yl)cyclobutyl)methyl)amino)isoindoline-1,3-dione]	> 1 µM	> 1 µM	> 1 µM	0.1 to 1 µM
O=C1CCC(N2C(=O)c3ccc(NC[C@H]4C[C@H](n5cc(-c6cnc7ccc(N8CCOCC8)cc7n6)cn5)C4)cc3C2=O)C(=O)N1 (stereo partly drawn) [GS-191, 2-(2,6-Dioxopiperidin-3-yl)-5-(((trans-3-(4-(7-morpholinoquinoxalin-2-yl)-1H-pyrazol-1-yl)cyclobutyl)methyl)amino)isoindoline-1,3-dione]	0.01 to 0.1 µM	< 0.01 µM	0.01 to 0.1 µM	< 0.01 µM
O=C1CCC(N2C(=O)c3ccc(NCC4CC(C(=O)N5CCC(n6cc(-c7cnc8ccccc8n7)cn6)CC5)C4)cc3C2=O)C(=O)N1 (stereo not drawn) [GS-192, 2-(2,6-Dioxopiperidin-3-yl)-5-(((3-(4-(4-(quinoxalin-2-yl)-1H-pyrazol-1-yl)piperidine-1-carbonyl)cyclobutyl)methyl)amino)isoindoline-1,3-dione]	0.1 to 1 µM	0.01 to 0.1 µM	> 1 µM	0.01 to 0.1 µM
O=C1CCC(N2C(=O)c3ccc(NC[C@H]4C[C@@H](n5cc(-c6cnc7ccc(C8CCOCC8)cc7n6)cn5)C4)cc3C2=O)C(=O)N1 (stereo partly drawn) [GS-193, 2-(2,6-Dioxopiperidin-3-yl)-5-(((cis-3-(4-(7-(tetrahydro-2H-pyran-4-yl)quinoxalin-2-yl)-1H-pyrazol-1-yl)cyclobutyl)methyl)amino)isoindoline-1,3-dione]	> 1 µM	0.1 to 1 µM	0.1 to 1 µM	0.1 to 1 µM
O=C1CCC(N2C(=O)c3ccc(NCCC45CC(C(=O)N6CCC(n7cc(-c8cnc9ccccc9n8)cn7)CC6)(C4)C5)cc3C2=O)C(=O)N1 (stereo not drawn) [GS-194, 2-(2,6-Dioxopiperidin-3-yl)-5-((2-(3-(4-(4-(quinoxalin-2-yl)-1H-pyrazol-1-yl)piperidine-1-carbonyl)bicyclo[1.1.1]pentan-1-yl)ethyl)amino)isoindoline-1,3-dione]	0.01 to 0.1 µM	< 0.01 µM	0.1 to 1 µM	< 0.01 µM
O=C1CCC(N2C(=O)c3ccc(NCCC[C@H]4C[C@H](n5cc(-c6cnc7ccc(N8CCNCC8)cc7n6)cn5)C4)cc3C2=O)C(=O)N1 (stereo partly drawn) [GS-195, 2-(2,6-Dioxopiperidin-3-yl)-5-((3-(trans-3-(4-(7-(piperazin-1-yl)quinoxalin-2-yl)-1H-pyrazol-1-yl)cyclobutyl)propyl)amino)isoindoline-1,3-dione]	0.1 to 1 µM	< 0.01 µM	0.1 to 1 µM	< 0.01 µM
O=C1CCC(N2C(=O)c3ccc(NCCC[C@H]4C[C@H](n5cc(-c6cnc7ccc(NC8CCNCC8)cc7n6)cn5)C4)cc3C2=O)C(=O)N1 (stereo partly drawn) [GS-196, 2-(2,6-Dioxopiperidin-3-yl)-5-((3-(trans-3-(4-(7-(piperidin-4-ylamino)quinoxalin-2-yl)-1H-pyrazol-1-yl)cyclobutyl)propyl)amino)isoindoline-1,3-dione]	0.01 to 0.1 µM	< 0.01 µM	0.01 to 0.1 µM	< 0.01 µM
N#Cc1cccc2ncc(-c3cnn([C@H]4C[C@H](CCCNc5ccc6c(c5)C(=O)N(C5CCC(=O)NC5=O)C6=O)C4)c3)nc12 (stereo partly drawn) [GS-197, 3-(1-(trans-3-(3-((2-(2,6-Dioxopiperidin-3-yl)-1,3-dioxoisoindolin-5-yl)amino)propyl)cyclobutyl)-1H-pyrazol-4-yl)quinoxaline-5-carbonitrile]	0.01 to 0.1 µM	0.01 to 0.1 µM	0.1 to 1 µM	0.01 to 0.1 µM
N#Cc1ccc2ncc(-c3cnn([C@H]4C[C@H](CCCNc5ccc6c(c5)C(=O)N(C5CCC(=O)NC5=O)C6=O)C4)c3)nc2c1 (stereo partly drawn) [GS-198, 3-(1-(trans-3-(3-((2-(2,6-Dioxopiperidin-3-yl)-1,3-dioxoisoindolin-5-yl)amino)propyl)cyclobutyl)-1H-pyrazol-4-yl)quinoxaline-6-carbonitrile]	0.01 to 0.1 µM	0.01 to 0.1 µM	0.1 to 1 µM	< 0.01 µM
O=C1CCC(N2C(=O)c3ccc(NCCC[C@H]4C[C@H](n5cc(-c6cnc7ccc(C8CCNCC8)cc7n6)cn5)C4)cc3C2=O)C(=O)N1 (stereo partly drawn) [GS-199, 2-(2,6-Dioxopiperidin-3-yl)-5-((3-(trans-3-(4-(7-(piperidin-4-yl)quinoxalin-2-yl)-1H-pyrazol-1-yl)cyclobutyl)propyl)amino)isoindoline-1,3-dione]	0.01 to 0.1 µM	< 0.01 µM	0.1 to 1 µM	< 0.01 µM
Cc1nn([C@H]2C[C@H](CNc3ccc4c(c3)C(=O)N(C3CCC(=O)NC3=O)C4=O)C2)cc1-c1cnc2ccccc2n1 (stereo partly drawn) [GS-200, 2-(2,6-Dioxopiperidin-3-yl)-5-(((trans-3-(3-methyl-4-(quinoxalin-2-yl)-1H-pyrazol-1-yl)cyclobutyl)methyl)amino)isoindoline-1,3-dione]	0.1 to 1 µM	0.01 to 0.1 µM	0.1 to 1 µM	0.01 to 0.1 µM
O=C1CCC(N2C(=O)c3ccc(NCCC[C@H]4C[C@H](n5cc(-c6cnc7ccc(F)cc7n6)cn5)C4)cc3C2=O)C(=O)N1 (stereo partly drawn) [GS-201, 2-(2,6-Dioxopiperidin-3-yl)-5-((3-(trans-3-(4-(7-fluoroquinoxalin-2-yl)-1H-pyrazol-1-yl)cyclobutyl)propyl)amino)isoindoline-1,3-dione]	0.1 to 1 µM	0.01 to 0.1 µM	0.1 to 1 µM	0.01 to 0.1 µM
O=C1CCC(N2C(=O)c3ccc(NCCC[C@H]4C[C@H](n5cc(-c6cnc7ccc(OC8CC8)cc7n6)cn5)C4)cc3C2=O)C(=O)N1 (stereo partly drawn) [GS-202, 5-((3-(trans-3-(4-(7-Cyclopropoxyquinoxalin-2-yl)-1H-pyrazol-1-yl)cyclobutyl)propyl)amino)-2-(2,6-dioxopiperidin-3-yl)isoindoline-1,3-dione]	0.01 to 0.1 µM	< 0.01 µM	0.1 to 1 µM	< 0.01 µM
O=C1CCC(N2C(=O)c3ccc(NCCC[C@H]4C[C@H](n5cc(-c6cnc7ccc(N8C[C@@H]9C[C@H]8CN9)cc7n6)cn5)C4)cc3C2=O)C(=O)N1 (stereo partly drawn) [GS-203, 5-((3-(trans-3-(4-(7-((1S,4S)-2,5-Diazabicyclo[2.2.1]heptan-2-yl)quinoxalin-2-yl)-1H-pyrazol-1-yl)cyclobutyl)propyl)amino)-2-(2,6-dioxopiperidin-3-yl)isoindoline-1,3-dione]	0.1 to 1 µM	0.01 to 0.1 µM	> 1 µM	0.01 to 0.1 µM
O=C1CCC(N2C(=O)c3ccc(NCCC[C@H]4C[C@H](n5cc(-c6cnc7ccc(OC8CCNCC8)cc7n6)cn5)C4)cc3C2=O)C(=O)N1 (stereo partly drawn) [GS-204, 2-(2,6-Dioxopiperidin-3-yl)-5-((3-(trans-3-(4-(7-(piperidin-4-yloxy)quinoxalin-2-yl)-1H-pyrazol-1-yl)cyclobutyl)propyl)amino)isoindoline-1,3-dione]	0.01 to 0.1 µM	0.01 to 0.1 µM	0.1 to 1 µM	< 0.01 µM
